Experimental data taken from US20250186451A1, “METHODS OF TREATING CANCER WITH IAP ANTAGONIST COMPOUNDS AND COMBINATION THERAPIES” (Otsuka Pharmaceutical Co., Ltd., priority 2022, published 2025).
“Also recorded” adds a separate entry of the source. Where two headings read alike, the source gives them in different places.

What was measured:
LOUCY cells [1] = test: Flow cytometry: annexin V/DAPI apoptosis and bead-based absolute cell count, LOUCY; set-up: species or system human; settings: for IC50: Homo sapiens
Description: (§1) Combination index and IC50 were determined using Calcusyn (BIOSOFT, Cambridge, UK).

MOLT16 cell line = test: Flow cytometry: annexin V/DAPI apoptosis and bead-based absolute cell count, MOLT16; set-up: species or system human; settings: MOLT16, single agent, 5 days
Description: (§2) Cells were re-suspended in PBS containing CountBright beads (Invitrogen #C36950) to allow for measurement of the absolute cell number. Half-maximal inhibitory concentrations (IC50) was calculated using CalcuSyn software (BIOSOFT, Cambridge, UK).
(§3) Combination index (CI) and IC50 were determined using Calcusyn (BIOSOFT, Cambridge, UK).

SUPT11 cells = test: Flow cytometry: annexin V/DAPI apoptosis and bead-based absolute cell count, SUPT11
Description: as §2, §3

ALL-SIL cells = test: Flow cytometry: annexin V/DAPI apoptosis and bead-based absolute cell count, ALL-SIL; set-up: species or system human
Description: as §1

LOUCY cells [2] = test: Western blot analysis in LOUCY cells; type: cell-based, human; settings: combination = Compound I + Compound II
Source text: Membranes were probed with specific antibodies.

PF382 cells = test: Flow cytometry: annexin V/DAPI apoptosis and bead-based absolute cell count, PF382; set-up: species or system human
Description: as §2, §3

CCRF-CEM cells = test: Flow cytometry: annexin V/DAPI apoptosis and bead-based absolute cell count, CCRF-CEM; set-up: species or system human
Description: as §2, §3

JURKAT cells = test: Flow cytometry: annexin V/DAPI apoptosis and bead-based absolute cell count, JURKAT; settings: single agent, 5 days
Description: as §2

MOLT4 cells = test: Flow cytometry: annexin V/DAPI apoptosis and bead-based absolute cell count, MOLT4; settings: MOLT4, single agent, 5 days
Description: as §2

[3] = system: PDX-derived cells (CD45+ bulk)
[4] = system: leukemia initiating cells (LICs, CD45+, CD7+, CD19-, CD34+)

**Q.** Which IC50 (LOUCY cells [1]; 120 h, Table 1, Loucy, Compound I single agent, 5 days) does the source give for `C[C@@H]1CN(CC(=O)N2CC(C)(C)c3nc(CO)c(Cc4ccc(F)cc4)cc32)[C@@H](CN2CCOC[C@H]2C)CN1` [Compound I, 1-(6-(4-fluorobenzyl)-5-(hydroxymethyl)-3,3-dimethyl-2,3-dihydro-1H-pyrrolo [3,2-b]pyridin-1-yl)-2-((2R,5R)-5-methyl-2-(((R)-3-methylmorpholino)methyl)piperazin-1-yl)ethan-1-one] here?
**A.** The IC50 was 190 nM.

**Q.** What about the IC50 (LOUCY cells [1]; Table 4, LOUCY cells, Combination = Compound II:Compound I 1:10) of the same molecule?
**A.** Its IC50 is 190 nM.

**Q.** And the “sensitivity to Compound I” value (MOLT16 cell line)?
**A.** The value was “least sensitive”.

**Q.** What about the IC50 (SUPT11 cells; Homo sapiens, SUPT11, 120 h, Table 1, SUPT11, Compound I single agent, 5 days) of the same molecule?
**A.** Its IC50 is 309 nM.

**Q.** And the IC50 (SUPT11 cells; Homo sapiens, SUPT11, Table 2, SUPT11 cells, Combination = DEX + Compound I 1:1)?
**A.** The IC50 was 11.7 nM.

**Q.** What about the IC50 (SUPT11 cells; Table 1, SUPT11, Compound I single agent, 5 days) of the same molecule?
**A.** Its IC50 is 310 nM.

**Q.** And the “sensitivity to Compound I” value (ALL-SIL cells; ALL-SIL, single agent, 5 days)?
**A.** The value was “moderate sensitivity”.

**Q.** And the IC50 (ALL-SIL cells; Homo sapiens, 120 h)?
**A.** The IC50 was 11800 nM.

**Q.** And the “PARP expression (Western blot)” value (LOUCY cells [2])?
**A.** Its value is “decreased expression”.

**Q.** What about the “cIAP2 expression (Western blot)” value (LOUCY cells [2]) of the same molecule?
**A.** The value was “decreased expression; also recorded: decrease”.

**Q.** And the “cleaved caspase 7 (Western blot)” value (LOUCY cells [2])?
**A.** The value was “increase”.

**Q.** What about the “sensitivity to Compound I” value (PF382 cells; PF382, single agent, 5 days) of the same molecule?
**A.** Its value is “least sensitive”.

**Q.** And the apoptosis induction (PF382 cells; PF382, single agents or combination Compound I:DEX 1:1)?
**A.** Its apoptosis induction is “no apoptosis induction”.

**Q.** What about the “sensitivity to Compound I” value (CCRF-CEM cells; CCRF-CEM, single agent, 5 days) of the same molecule?
**A.** Its value is “moderate sensitivity”.

**Q.** And the IC50 (CCRF-CEM cells; Homo sapiens, CCRF-CEM, 120 h)?
**A.** The IC50 was 17800 nM.

**Q.** And the “sensitivity to Compound I” value (JURKAT cells)?
**A.** The value was “least sensitive”.

**Q.** What about the “sensitivity to Compound I” value (MOLT4 cells) of the same molecule?
**A.** The value was “least sensitive”.

**Q.** `CC1(C)CCC(CN2CCN(c3ccc(C(=O)NS(=O)(=O)c4ccc(NCC5CCOCC5)c([N+](=O)[O-])c4)c(Oc4cnc5[nH]ccc5c4)c3)CC2)=C(c2ccc(Cl)cc2)C1` [Compound II, 2-((1H-pyrrolo[2,3-b]pyridin-5-yl)oxy)-4-(4-((4′-chloro-5,5-dimethyl-3,4,5,6-tetrahydro-[1,1′-biphenyl]-2-yl)methyl)piperazin-1-yl)-N-((3-nitro-4-(((tetrahydro-2H-pyran-4-yl)methyl)amino)phenyl)sulfonyl)benzamide, reference compound] was tested. Which cell death (LOUCY cells [1]; LOUCY, combination = Compound II:Compound I 1:10) did it give?
**A.** The cell death was 27+0.9%.

**Q.** How did the EC50 (SUPT11 cells; Homo sapiens, SUPT11, read-out: ED50, SUPT11 cells, DEX treatment alone) turn out when `C[C@@H]1C[C@H]2[C@@H]3CCC4=CC(=O)C=C[C@]4(C)[C@@]3(F)[C@@H](O)C[C@]2(C)[C@@]1(O)C(=O)CO` [DEX, dexamethasone, reference compound] was run?
**A.** Its EC50 is about 2000 nM.

**Q.** And the EC50 (SUPT11 cells; Homo sapiens, SUPT11, read-out: ED50, Table 2, SUPT11 cells, Combination = DEX + Compound I 1:1)?
**A.** The EC50 was 2000 nM.

**Q.** And the cytotoxic effect [3]?
**A.** Its cytotoxic effect is 58±2%.

**Q.** And the cytotoxic effect [4]?
**A.** The cytotoxic effect was 62±2%.

**Q.** What about the cell death (CCRF-CEM cells; CCRF-CEM (DEX-resistant), combination = Compound I:DEX 1:1) of the same molecule?
**A.** Its cell death is 20+3%.
